Experiments:
[1] = system: VZV Ellen; test: Herpes virus panel neutralization, VZV; type: cell-based, Varicella-Zoster virus
Experimental: To determine the specificity of MBX-4992, additional neutralization experiments were conducted using a panel of herpes viruses performed in the presence of MBX-4992. […] Collectively, the antiviral activity of MBX-4992 is equivalent to that of GCV indicating specific inhibition of CMV replication.

[2] = system: HCMV strain AD169^R; test: CMV infection (neutralization) assay, GFP/IE1 readout 24 hpi, AD169^R; type: cell-based, Human cytomegalovirus; settings: Human betaherpesvirus 5, AD169, Fibroblast
Experimental: Fibroblasts and ARPE-19 cells (10^4) were plated in 96-well plates (Greiner, Monroe, NC). The following day the cells were pretreated for 1 hour at 37° C. with increasing concentrations of the respective novel NAPA compounds described herein or DMSO in triplicate prior to infection with the respective viruses. At 18 hours post infection (hpi) cells were stained using a rabbit anti-IE1 antibody followed by an anti-rabbit Alexa 647 and measured using a Celigo Cytometer (Parsons et al., Antiviral Res., 193:105124 (2021); Stein et al., Nat. Commun., 10:2699 (2019)). Using the DMSO treated cells as 100% infection, the percent infection of the NAPA compound-treated cells was determined. The half maximal inhibitory (IC50) values were calculated using Prism9's nonlinear fit [inhibitor]-vs-response (four parameters) analysis of these averages and extrapolation to the concentration that would produce 50% infection relative to DMSO treatment.
To further evaluate the inhibitory properties of MBXC-4302 against CMV, we utilized the AD169 CMV virus strain containing the UL131-UL128 open reading frame of the HCMV strain TR and expressing EGFP (AD169^R) (Wang D. and Shenk T., Proc. Nat. Acad. Sci., USA, 102:18153-18158 (2005)) and TB40/E infection of human fibroblasts (NHDF) and ARPE-19 epithelial cells in the presence of increasing concentration of compound (FIG. 2A-D). Infection was analyzed 24 hours post infection (hpi) by measuring GFP fluorescence encoded by AD169^R or using an anti-IE1 antibody for staining TB40/E infected cells.
NAPA variants with modified groups were evaluated for inhibition of CMV infection in fibroblasts. AD169^R infected fibroblasts were treated with NAPA compounds MBX-4992, MBXC-4325, MBXC-4330, and MBXC-4336 (0-50 μM) and analyzed for infection at 24 hpi (FIG. 6A-D). The infected cells were probed for IE1 as an indication of virus infection.

[3] = system: NHDF cells; test: CellTiter Glo ATP luciferase assay; type: cell-based, human; settings: human, 6 days
Experimental: Fibroblasts were treated with increasing concentrations of MBX-4992 and MBXC-4336 for up to 6 days and cell number was measured periodically using Hoechst stain to quantify cell proliferation (A and B). Cyclohexamide (CHX) and DMSO (−) were used as positive and negative controls for cytotoxicity respectively. Cell cytostaticity (C and D) was assessed using ATP-based CellTiter Glo luciferase assay following extended incubation with increasing concentrations of MBX-4992 and MBXC-4336 for 1 or 6 days. Relative light units (RLU) were measured following cell lysis and normalized to DMSO treated cells for each time point.
The CellTiter Glo Luminescent Assay (Promega Inc, Madison, WI) was performed according to the manufacturer's instruction. NHDF cells (10^4) were plated in a 96-well plate overnight and treated with MBX-4992 or MXC-4336 ([…]) in triplicate for up to 6 days. Cyclohexamide (50 μg/mL) was used as a control. CellTiter Glo substrate was added in a 1:1 ratio with media and CellTiter-Glo reagent followed by the analysis of luciferase activity (relative light units, RLU) using a BioTek Synergy H1 microplate reader. In parallel, an identical plate was labelled with Hoescht reagent (25 μg/mL) to quantify the cell number using a Celigo Cytometer.
Next, the cytostaticity and cytotoxicity of treatment with MBX-4992 and MBXC-4336 was analyzed. […]

[4] = system: TR, Towne, and TB40/E strains; test: CMV infection assay of MBXC-4336 with further strains; type: cell-based, Human cytomegalovirus; settings: NHDF cells, 24 hpi, IE1 (FIG. 11F-H)
Experimental: HCMV strains AD169 (A), TB40/E Flag YFP (B), Towne (C and G), TR (D and F), Merlin (E), and TB40/E (H) infection of NHDF cells pre-treated with DMSO and 0, 1, 5, or 20 μM MBX-4992 or MBXC-4336, respectively, were assessed at 24 hpi based on IE1 expression by anti-IE1 immunostain. TB40/E (I) (MOI 0.25) and AD169^R (J) (MOI 0.25) infection of HTR-svNeo cells treated with DMSO and 0, 1, 5, or 20 μM MBX-4992 were assessed at 24 hpi based on IE1 expression by anti-IE1 immunostain. The % infection was determined using DMSO-treated as 100% infection. The error bars represent values in triplicate. Statistical tests were performed using ordinary one-way ANOVA with multiple comparisons to DMSO treated cells as a control and a Dunnett's post-test *, p<0.05; **, p<0.01; ****, p<0.0001.
Fibroblasts and ARPE-19 cells (10^4) were plated in 96-well plates (Greiner, Monroe, NC). […] At 18 hours post infection (hpi) cells were stained using a rabbit anti-IE1 antibody followed by an anti-rabbit Alexa 647 and measured using a Celigo Cytometer (Parsons et al., Antiviral Res., 193:105124 (2021); Stein et al., Nat. Commun., 10:2699 (2019)). Using the DMSO treated cells as 100% infection, the percent infection of the NAPA compound-treated cells was determined. […]

Structure (SMILES) | SI [1] | IC50 ([1]; Human alphaherpesvirus 3) [nM] | IC50 [2] [nM] | decrease of luciferase activity [3] [%] | effectiveness against further strains [4]
Cc1nc(Nc2ccc(NC(=O)c3ccco3)cc2)cc(N2CCCC2)n1 [MBX-4992] | <5 | > 30000 | – | – | –
Cc1nc(Nc2cccc(NC(=O)c3ccco3)c2)cc(N2CCCCC2)n1 [MBXC-4336] | – | – | 2900 | 10 | effectiveness of MBXC-4336 was validated

From patent US20250177392A1, “BROAD SPECTRUM INHIBITORS OF CYTOMEGALOVIRUS” (MICROBIOTIX, INC., priority 2022, published 2025)
